From patent US6946453B2, “4-dedimethylaminotracycline derivatives” (CollaGenex Pharmaceuticals, Inc., priority 1998, dated 2005)

system: BALB/c 3T3 (CCL-163) cells; settings: not given
Experimental: The assay used to assess phototoxicity is the so-called 3T3 Phototoxicity Assay. The assay compares the cytotoxicity of a series of doses of a test compound in the presence and absence of UVA/visible light.
Briefly, serial dilutions of a test compound are prepared, and are incubated with 3T3 cells in two 96-well plates. Following an initial incubation, the cells in one plate, the test cells receiving both the chemical and light, are exposed to UVA/visible light. In the second plate, the test cells receiving only the test chemical were treated the same way, except they are kept in the dark for the same amount of time.
Twenty-four hours after exposure, the test cells and the control cells are then incubated with neutral red dye. Neutral red dye is used to measure the relative number of living cells in each well. Live cells are stained with the dye while dead cells are not.
Phototoxicity is measured by the relative toxicity between the doses with and without light exposure following published guidelines.
Streptomycin sulfate ([…]) and penicillin (100 IU/ml) were added to the medium after the cells were treated with test article in 96-well plates.
Serial dilutions of the tetracycline derivatives were prepared in DMSO at concentrations 100× to final testing concentration. The COL dilutions in DMSO were then diluted in Hanks' Balanced Salt Solution (HBSS) for application to the cells. The final DMSO concentration was 1% in treated and control cultures. A dose range finding assay is conducted with eight serial dilutions covering a range of 100-0.03 μg/ml in half log steps. Definitive assays are conducted with 6-8 serial dilutions prepared in quarter log steps, centered on the expected 50% toxicity point as determined in the dose range finding assay. One hundred 100 μg/ml was the highest dose recommended to prevent false negative results from UV absorption by the dosing solutions. One dose range finding and at least two definitive trials were performed on each tetracycline derivative and control compound.
Controls: Each assay included both negative (solvent) and positive controls. Twelve wells of negative control cultures were used on each 96-well plate. Chlorpromazine (Sigma Chemicals) was used as the positive control and was prepared and dosed like the test tetracycline derivatives.
Solar Simulator: A Dermalight SOL 3 solar simulator, equipped with a UVA H1 filter (320-400 nm), was adjusted to the appropriate height. Measurement of energy through the lid of a 96-well microtiter plate was carried out using a calibrated UV radiometer UVA sensor. Simulator height was adjusted to deliver 1.7±0.1 mW/cm^2 of UVA energy (resulting dose was 1 J/cm^2 per 10 minutes of exposure).
Phototoxicity Assay: Duplicate plates were prepared for each test material by seeding 10^4 3T3 cells per well in complete medium 24 hours before treatment. Prior to treatment, the medium was removed, and the cells washed once with 125 μl of prewarmed HBSS. Fifty μl of prewarmed HBSS were added to each well. Fifty μl of each test article dilution were added to the appropriate wells and the plates returned to the incubator for approximately one hour. Six wells were treated with each dose of test or control article on each plate. Following the 1 hr incubation, the plates designated for the photo irradiation were exposed (with the lid on) to 1.7±0.1 mW/cm^2 UVA light for 50±2 minutes at room temperature resulting in an irradiation dose of 5 J/cm^2. Duplicate plates, designated for the measurement of cytotoxicity without light, were kept in the dark room temperature for 50±2 minutes. After the 50 minute exposure period (with or without light) the test article dilutions were decanted from the plates and the cells washed once with 125 μl of HBSS. One hundred μl of medium were added to all wells and the cells incubated as above for 24±1 hours.

Compound | PIF 2 (photoirritancy factor, IC50(-UVA)/IC50(+UVA), OECD draft guideline 432) | PIF 1 (photoirritancy factor, IC50(-UVA)/IC50(+UVA), earlier software)
NC(=O)C1=C(O)C[C@@H]2C[C@@H]3Cc4cccc(O)c4C(=O)C3=C(O)[C@]2(O)C1=O [COL 3, 6-demethyl-6-deoxy-4-dedimethylaminotetracycline] | 84.72 | –
CC1c2cccc(O)c2C(=O)C2=C(O)C3(O)C(=O)C(C(N)=O)=C(O)CC3C(O)C21 (stereo not shown) [COL 8, 4-dedimethylaminodoxycycline] | 82.61 | –
CN(C)c1ccc(O)c2c1CC1CC3CC(O)=C(C(N)=O)C(=O)C3(O)C(O)=C1C2=O (stereo not shown) [COL 10, 4-dedimethylaminominocycline] | 2.04 | –
NC(=O)C1=C(O)CC2CC3Cc4c([N+](=O)[O-])ccc(O)c4C(=O)C3=C(O)C2(O)C1=O (stereo not shown) [COL 302, 7-nitro-6-demethyl-6-deoxy-4-dedimethylaminotetracycline] | 23.32 | –
NC(=O)C1=C(O)CC2CC3Cc4ccc([N+](=O)[O-])c(O)c4C(=O)C3=C(O)C2(O)C1=O (stereo not shown) [COL 303, 9-nitro-6-demethyl-6-deoxy-4-dedimethylaminotetracycline] | 13.82 | –
CN(C)c1ccc2c(c1O)C(=O)C1=C(O)C3(O)C(=O)C(C(N)=O)=C(O)CC3CC1C2 (stereo not shown) [COL 306, 9-dimethylamino-6-demethyl-6-deoxy-4-dedimethylaminotetracycline] | 1.56 | –
CN(C)CC(=O)Nc1ccc2c(c1O)C(=O)C1=C(O)C3(O)C(=O)C(C(N)=O)=C(O)CC3CC1C2 (stereo not shown) [COL 309, 9-dimethylaminoacetamido-6-demethyl-6-deoxy-4-dedimethylaminotetracycline] | 12.87 | –
O=C(NCN1CCCC1)C1=C(O)CC2CC3Cc4cccc(O)c4C(=O)C3=C(O)C2(O)C1=O (stereo not shown) [COL 312, 2-CONHCH2-pyrrolidin-1-yl-6-demethyl-6-deoxy-4-dedimethylaminotetracycline] | 75.11 | –
O=C(NCN1CCCCC1)C1=C(O)CC2CC3Cc4cccc(O)c4C(=O)C3=C(O)C2(O)C1=O (stereo not shown) [COL 313, 2-CONHCH2-piperidin-1-yl-6-demethyl-6-deoxy-4-dedimethylaminotetracycline] | 58.22 | –
O=C(NCN1CCOCC1)C1=C(O)CC2CC3Cc4cccc(O)c4C(=O)C3=C(O)C2(O)C1=O (stereo not shown) [COL 314, 2-CONHCH2-morpholin-1-yl-6-demethyl-6-deoxy-4-dedimethylaminotetracycline] | 89.48 | –
O=C(NCN1CCNCC1)C1=C(O)CC2CC3Cc4cccc(O)c4C(=O)C3=C(O)C2(O)C1=O (stereo not shown) [COL 315, 2-CONHCH2-piperazin-1-yl-6-demethyl-6-deoxy-4-dedimethylaminotetracycline] | 35.30 | –
CC1c2cccc(O)c2C(=O)C2=C(O)C3(O)C(=O)C(C(=O)NCN4CCCC4)=C(O)CC3C(O)C21 (stereo not shown) [COL 807, 2-CONHCH2-pyrrolidin-1-yl-4-dedimethylaminodoxycycline] | – | 40.4
CN(C)c1cc([N+](=O)[O-])c(O)c2c1CC1CC3CC(O)=C(C(N)=O)C(=O)C3(O)C(O)=C1C2=O (stereo not shown) [COL 1002, 9-nitro-4-dedimethylaminominocycline] | 1.35 | –

same assay, conditions: BALB/c 3T3 cells, cytotoxicity with vs without 5 J/cm^2 UVA, neutral red; OECD draft guideline 432 software

Compound | MPE (mean photo effect)
COL 2 | 0.005

same assay, conditions: mouse, 110 min

Compound | PIF 2 (photoirritancy factor, IC50(-UVA)/IC50(+UVA), OECD draft guideline 432)
CN(C)CCCN1c2ccccc2Sc2ccc(Cl)cc21 [Chlorpromazine, reference compound] | 40.38
C[C@H]1c2cccc(O)c2C(=O)C2=C(O)[C@]3(O)C(=O)C(C(N)=O)=C(O)[C@@H](N(C)C)[C@@H]3[C@@H](O)[C@@H]21 [Doxycycline, doxycycline, reference compound] | 26.71
